Assay results as given in PMC5047629, “Synthesis, Pharmacological Profile and Docking Studies of New Sulfonamides Designed as Phosphodiesterase-4 Inhibitors” (PLoS ONE, 2016).

Tests used:
[1] = molecular target: T1, PDE4A (Homo sapiens, UniProt P27815); experiment: PDE4A inhibition, IMAP fluorescence polarization protocol; assay type: biochemical
T1 construct: purchased MDS PHARMA
Protocol: (§1) The enzymatic reactions were carried at room temperature in a 96-well black plate by co-incubating 25 μL of 200 nM FAM-cAMP (R7513), 5 μL of putative inhibitory compounds and 20 μL of the PDE4 isoform dissolved in assay buffer (R7364) for 1 h. All enzymes were obtained from human recombinant sources (MDS PHARMA), whereas the other reagents were purchased from Molecular Devices. […] PDE4 inhibitors were dissolved in dimethyl sulfoxide (DMSO) at a final concentration of 0.1%.
(§2) The inhibitory activities of the new sulfonamide derivatives were evaluated for their selectivity against the four isoforms of human PDE4, i.e. PDE4A, PDE4B, PDE4C, and PDE4D, using an IMAP-FP protocol.

[2] = molecular target: T2, PDE4B (Homo sapiens, UniProt Q07343); experiment: PDE4B inhibition, IMAP fluorescence polarization protocol; assay type: biochemical
T2 construct: purchased MDS PHARMA
Protocol: as §1, §2

[3] = molecular target: T3, PDE4C (Homo sapiens, UniProt Q08493); experiment: PDE4C inhibition, IMAP fluorescence polarization protocol; assay type: biochemical
T3 construct: purchased MDS PHARMA
Protocol: as §1, §2

[4] = molecular target: T4, PDE4D (Homo sapiens, UniProt Q08499); experiment: PDE4D inhibition, IMAP fluorescence polarization protocol; assay type: biochemical
T4 construct: purchased MDS PHARMA
Protocol: as §1, §2

[5] = system: PDE3; experiment: PDE3 activity inhibition; assay type: biochemical; settings: 10 μM
[6] = system: guinea-pig trachea; experiment: Tracheal smooth muscle contraction in vitro induced by carbachol; settings: 100 μM, S1A Fig
Protocol: Tracheas from guinea pigs were obtained and prepared as described previously. An initial tension of 1 g was applied to the tracheas for 60 min to obtain a constant resting tension. To confirm the viability of the preparation, the response to carbachol (2.5 μM) was recorded. After washout of carbachol and re-establishement of the baseline resting tension, tissues were preincubated with LASSBio-448 (100 μM) or vehicle (DMSO 0.1%) 15 min before re-exposed to cumulative addition of carbachol (10^−8–10^−4 M). The tracheal rings were pretreated 10 min before application of LASSBio-448 with 100 μM SQ22536 (adenylyl cyclase inhibitor). Stimulation-induced isometric contractile responses were measured with a force-displacement transducer (Ugo Basile, Comerio, Italy) and the readout used to assess contractility was obtained by isolated organ data acquisition software (Proto 5; Letica Scientific Instruments, Barcelona, Spain). Contractile responses were expressed as a percentage of the maximal contraction induced by 2.5 μM carbachol.

[7] = system: A/J mice; experiment: Short-term murine model of asthma (OVA provocations at days 19 and 20), prophylactic treatment; assay type: in vivo; settings: 100 mg/Kg oral, 1 h before each OVA challenge, 24 h after last provocation
Protocol: Sensitization was performed by means of a subcutaneous injection of 50 μg ovalbumin (OVA) (grade V; Sigma-Aldrich, St. Louis, MO) adsorbed to 5 mg of Al(OH)3 in 0.2 mL of sterile 0.9% NaCl (saline) at days 0 and 14. Intranasal OVA provocations (25 μg /25 μL saline) were performed at 19 and 20 days post-sensitization under isofluorane volatile anaesthesia (Cristalia, São Paulo, Brazil). Alternatively, sensitization as described above were done at days 0 and 7, while the OVA provocations were carried out at days 14, 21, 28 and 35 [39]. Negative control groups were represented by sensitized mice in which allergen was replaced by saline as a challenge. […]
The EPO activity present in lung tissue was determined with a colorimetric assay as described by Strath et al. (1985), with minor modifications. […] The optical density reading was performed on the SpectraMax M5 spectrophotometer (Molecular Devices) at a wavelength of 492 nm.
Twenty-four hours after the last challenge the animals were killed by an over dose of thiopental (200 mg/kg, i.p.) and bronchoalveolar lavage (BAL) was performed three times by intratracheal instillation of 500 μL of PBS and EDTA (10 mM) through a trachea cannula and gently aspirating the fluid. […] Total leukocyte numbers were measured in Neubauer chambers using light microcopy after diluting the samples in Türk solution (2% acetic acid). […]

[8] = system: A/J mice; experiment: Duration of xylazine/ketamine anesthesia (behavioral correlate of emesis); assay type: in vivo
Protocol: This assessment was carried out as previously reported. […] The animals were placed in dorsal position and their spontaneous return to the prone position was used as an endpoint to determine anesthesia duration.

[9] = 1 μM, mean ± SEM, 3 experiments
[10] = recombinant enzyme, mean ± SEM of three measurements

T1 sequence (P27815 1-647 isoform P27815-4): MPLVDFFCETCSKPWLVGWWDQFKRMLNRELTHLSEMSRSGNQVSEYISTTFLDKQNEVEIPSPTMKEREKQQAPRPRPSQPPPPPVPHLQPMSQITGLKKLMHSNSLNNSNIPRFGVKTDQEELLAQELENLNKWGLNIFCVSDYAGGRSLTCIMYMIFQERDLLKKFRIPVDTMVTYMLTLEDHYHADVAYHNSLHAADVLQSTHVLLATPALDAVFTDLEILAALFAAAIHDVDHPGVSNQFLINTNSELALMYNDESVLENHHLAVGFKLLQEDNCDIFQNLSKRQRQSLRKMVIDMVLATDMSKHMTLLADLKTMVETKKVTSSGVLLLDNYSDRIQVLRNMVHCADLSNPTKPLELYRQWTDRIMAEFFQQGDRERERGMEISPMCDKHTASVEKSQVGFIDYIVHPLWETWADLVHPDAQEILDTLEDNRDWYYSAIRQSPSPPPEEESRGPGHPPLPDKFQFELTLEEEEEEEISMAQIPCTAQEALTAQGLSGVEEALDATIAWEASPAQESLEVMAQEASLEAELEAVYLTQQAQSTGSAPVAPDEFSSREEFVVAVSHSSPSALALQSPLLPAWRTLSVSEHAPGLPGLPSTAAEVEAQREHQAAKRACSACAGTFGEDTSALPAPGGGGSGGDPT
T4 sequence (Q08499 1-673 isoform Q08499-2): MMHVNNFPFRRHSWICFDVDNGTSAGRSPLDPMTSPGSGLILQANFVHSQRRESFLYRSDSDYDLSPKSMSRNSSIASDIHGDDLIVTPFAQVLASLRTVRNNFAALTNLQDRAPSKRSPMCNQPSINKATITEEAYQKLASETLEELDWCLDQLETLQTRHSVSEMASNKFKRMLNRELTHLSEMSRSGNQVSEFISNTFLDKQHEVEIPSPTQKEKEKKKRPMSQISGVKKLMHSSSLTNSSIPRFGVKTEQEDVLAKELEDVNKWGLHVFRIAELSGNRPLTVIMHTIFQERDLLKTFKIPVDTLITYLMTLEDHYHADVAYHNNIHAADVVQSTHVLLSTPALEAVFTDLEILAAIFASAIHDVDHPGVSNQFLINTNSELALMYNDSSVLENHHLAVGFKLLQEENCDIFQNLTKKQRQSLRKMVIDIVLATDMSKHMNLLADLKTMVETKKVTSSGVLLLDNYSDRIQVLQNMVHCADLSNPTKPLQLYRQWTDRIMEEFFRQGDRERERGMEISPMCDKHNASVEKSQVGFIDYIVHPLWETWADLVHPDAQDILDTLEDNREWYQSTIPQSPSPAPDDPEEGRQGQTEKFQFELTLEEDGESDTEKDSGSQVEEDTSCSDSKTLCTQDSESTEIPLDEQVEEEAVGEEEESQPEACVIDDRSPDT
T2 sequence (Q07343 whole entry): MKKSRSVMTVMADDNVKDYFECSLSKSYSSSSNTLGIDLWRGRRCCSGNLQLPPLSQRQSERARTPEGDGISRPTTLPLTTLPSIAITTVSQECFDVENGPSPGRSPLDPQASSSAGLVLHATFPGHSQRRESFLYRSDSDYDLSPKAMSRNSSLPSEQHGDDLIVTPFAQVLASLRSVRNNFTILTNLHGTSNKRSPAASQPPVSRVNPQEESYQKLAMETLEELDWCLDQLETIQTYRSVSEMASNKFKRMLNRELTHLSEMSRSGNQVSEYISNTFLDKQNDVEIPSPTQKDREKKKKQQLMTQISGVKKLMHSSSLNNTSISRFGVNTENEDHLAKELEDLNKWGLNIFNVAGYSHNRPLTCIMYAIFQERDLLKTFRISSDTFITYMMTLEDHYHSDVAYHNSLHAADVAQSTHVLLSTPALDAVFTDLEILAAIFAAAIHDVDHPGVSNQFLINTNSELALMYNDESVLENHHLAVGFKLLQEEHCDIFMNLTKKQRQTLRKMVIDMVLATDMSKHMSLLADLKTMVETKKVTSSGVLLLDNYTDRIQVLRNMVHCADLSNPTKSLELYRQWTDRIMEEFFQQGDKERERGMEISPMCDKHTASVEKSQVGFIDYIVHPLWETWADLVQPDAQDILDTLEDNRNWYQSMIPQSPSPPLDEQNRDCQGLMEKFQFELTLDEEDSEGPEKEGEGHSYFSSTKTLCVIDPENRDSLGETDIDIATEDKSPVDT
T3 sequence (Q08493 whole entry): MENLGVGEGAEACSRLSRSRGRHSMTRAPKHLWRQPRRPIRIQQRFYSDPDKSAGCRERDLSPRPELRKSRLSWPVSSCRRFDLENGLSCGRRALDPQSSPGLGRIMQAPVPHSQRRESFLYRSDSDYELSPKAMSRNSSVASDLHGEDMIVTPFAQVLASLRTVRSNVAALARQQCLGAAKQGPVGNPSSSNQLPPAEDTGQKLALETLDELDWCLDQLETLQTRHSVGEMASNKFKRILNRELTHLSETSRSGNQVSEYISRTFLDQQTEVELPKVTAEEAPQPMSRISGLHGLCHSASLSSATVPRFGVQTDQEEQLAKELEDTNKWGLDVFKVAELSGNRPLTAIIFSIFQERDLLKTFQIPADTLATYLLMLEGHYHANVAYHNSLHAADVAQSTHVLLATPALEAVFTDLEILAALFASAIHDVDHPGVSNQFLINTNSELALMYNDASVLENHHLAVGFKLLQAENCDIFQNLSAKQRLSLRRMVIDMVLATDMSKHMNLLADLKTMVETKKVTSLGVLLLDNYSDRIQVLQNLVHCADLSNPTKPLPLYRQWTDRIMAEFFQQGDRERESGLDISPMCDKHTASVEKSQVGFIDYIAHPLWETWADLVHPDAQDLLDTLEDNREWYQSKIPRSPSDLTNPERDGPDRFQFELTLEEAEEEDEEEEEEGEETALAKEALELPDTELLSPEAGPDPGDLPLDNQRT

In the case of COc1ccc(CCNS(=O)(=O)c2cc3c(cc2C)OCO3)cc1OC [6a (LASSBio-448), N-(3,4-dimethoxyphenethyl)-6-methylbenzo[d][1, 3]dioxole-5-sulfonamide], the PDE4A1A inhibition [1, 9] is reported as “able to inhibit”, the inhibition at 1 µM ([1]; 1 μM, mean ± SEM, 3 experiments, read-out: PDE4A1A inhibition) is reported as 36.5 ± 0.7% and the IC50 [1, 10] is reported as 0.7 ± 0.07 µM. The PDE4B1 inhibition [2, 9] was “able to inhibit”, the inhibition at 1 µM ([2]; 1 μM, mean ± SEM, 3 experiments, read-out: PDE4B1 inhibition) was 31 ± 1.1% and the IC50 [2, 10] was 1.4 ± 0.09 µM. For the same molecule, the PDE4C inhibition [3, 9] was “able to inhibit”, the inhibition at 1 µM [3, 9] was 33.7 ± 0.4% and the IC50 [3, 10] was 1.1 ± 0.13 µM. The inhibition at 1 µM ([4]; 1 μM, mean ± SEM, 3 experiments, read-out: PDE4D3 inhibition) was 26.5 ± 0.7%, the “selective inhibitory index (SI) PDE4D/PDE4A” value ([4]; ratio of IC50 values) was 6.7 and the “selective inhibitory index (SI) PDE4D/PDE4B” value ([4]; ratio of IC50 values) was 3.3. For the same molecule, the IC50 [4, 10] was 4.7 ± 0.09 µM, the “inhibition of PDE3 activity” value [5] was “failed to inhibit” and the “tracheal contraction induced by cumulative carbachol” value [6] was “inhibited”. The “relaxant effect after pre-treatment with SQ22,536” value ([6]; pre-treatment with 100 μM SQ22,536 (adenylyl cyclase inhibitor)) was “clearly abrogated”, the “eosinophil levels in bronchoalveolar lavage fluid” value ([7]; Fig 4A) was “clearly prevented the up-regulation” and the “eosinophil levels in lung tissue homogenates (EPO colorimetric assay)” value ([7]; Fig 4B) was “clearly prevented the up-regulation”. For the same molecule, the “reduction of sleep time (duration of xylazine/ketamine anesthesia)” value ([8]; 11 μmol/Kg oral) was 24.1%, the “reduction of sleep time (duration of xylazine/ketamine anesthesia)” value ([8]; 27 μmol/Kg oral) was 26.6% and the “reduction of sleep time (duration of xylazine/ketamine anesthesia)” value ([8]; 80 μmol/Kg oral) was 35.5%. The “fold less pro-emetic than rolipram” value ([8]; vs rolipram) was “at least 7 fold”.
